According to BindingDB's records for doi:10.1016/j.bmc.2003.11.015 (Bristol-Myers Squibb Pharmaceutical Research Institute, 2004):
pKi: −log10 of the molar value. Counter-ions that a name gives are not always drawn.

Tests used:
D(2) dopamine receptor [1] = molecular target: D(2) dopamine receptor (Homo sapiens, UniProt P14416)
D(1A) dopamine receptor = D(1A) dopamine receptor (Rattus norvegicus, UniProt P18901)
D(2) dopamine receptor [2] = molecular target: D(2) dopamine receptor (Rattus norvegicus, UniProt P61169)
Sequence of D(2) dopamine receptor (Rattus norvegicus, UniProt P61169) (P61169 whole entry): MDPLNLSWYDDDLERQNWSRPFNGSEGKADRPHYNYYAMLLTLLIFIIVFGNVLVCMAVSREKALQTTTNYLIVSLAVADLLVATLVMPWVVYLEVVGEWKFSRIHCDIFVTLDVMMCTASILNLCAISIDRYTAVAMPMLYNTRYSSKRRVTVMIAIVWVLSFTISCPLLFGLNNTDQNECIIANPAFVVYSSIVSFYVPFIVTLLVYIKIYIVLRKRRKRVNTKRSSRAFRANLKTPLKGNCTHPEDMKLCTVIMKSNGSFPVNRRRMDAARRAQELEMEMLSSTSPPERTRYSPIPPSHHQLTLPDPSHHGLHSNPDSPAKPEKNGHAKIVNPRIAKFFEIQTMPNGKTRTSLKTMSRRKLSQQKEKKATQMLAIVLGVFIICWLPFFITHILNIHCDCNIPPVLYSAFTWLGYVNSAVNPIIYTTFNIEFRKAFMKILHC

Sequence of D(1A) dopamine receptor (P18901 whole entry): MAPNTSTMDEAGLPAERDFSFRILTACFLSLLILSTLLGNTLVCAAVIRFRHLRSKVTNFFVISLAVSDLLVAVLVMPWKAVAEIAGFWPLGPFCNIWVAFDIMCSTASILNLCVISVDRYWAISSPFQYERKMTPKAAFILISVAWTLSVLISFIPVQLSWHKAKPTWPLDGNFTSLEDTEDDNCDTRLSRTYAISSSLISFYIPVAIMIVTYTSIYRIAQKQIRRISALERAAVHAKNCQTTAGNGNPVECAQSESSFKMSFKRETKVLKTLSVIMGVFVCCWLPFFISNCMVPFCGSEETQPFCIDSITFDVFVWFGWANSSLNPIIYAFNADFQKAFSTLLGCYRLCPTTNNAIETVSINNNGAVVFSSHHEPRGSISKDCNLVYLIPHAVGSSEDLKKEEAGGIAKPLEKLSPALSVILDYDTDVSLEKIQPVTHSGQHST
Sequence of D(2) dopamine receptor (Homo sapiens, UniProt P14416) (P14416 whole entry): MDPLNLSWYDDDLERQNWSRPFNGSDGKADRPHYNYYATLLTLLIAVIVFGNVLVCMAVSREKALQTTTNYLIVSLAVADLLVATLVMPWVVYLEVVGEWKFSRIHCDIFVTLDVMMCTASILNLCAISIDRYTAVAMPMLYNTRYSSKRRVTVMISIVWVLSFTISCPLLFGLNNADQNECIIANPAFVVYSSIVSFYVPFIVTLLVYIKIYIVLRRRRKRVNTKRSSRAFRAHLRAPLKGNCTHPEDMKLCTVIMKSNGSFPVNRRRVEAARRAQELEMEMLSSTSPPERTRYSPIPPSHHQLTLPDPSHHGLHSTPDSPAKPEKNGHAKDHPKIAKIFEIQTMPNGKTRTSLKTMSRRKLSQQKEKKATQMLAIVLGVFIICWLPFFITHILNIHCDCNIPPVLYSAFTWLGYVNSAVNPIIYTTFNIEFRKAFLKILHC

CC1NC[C@H]2c3ccc(O)c(O)c3Cc3cccc1c32 (mixture of isomers) [(+/-)-3-methyldinapsoline hydrobromide]
pKi (D(2) dopamine receptor [1]): 7.40 | pKi (D(1A) dopamine receptor): 5.70

CCCCC1NC[C@H]2c3ccc(O)c(O)c3Cc3cccc1c32 (mixture of isomers) [(+/-)-3-n-butyldinapsoline hydrobromide]
pKi (D(1A) dopamine receptor): 6.52

CCC1c2cccc3c2[C@@H](CNC3)c2ccc(O)c(O)c21 (mixture of isomers) [(+/-)-7-ethyldinapsoline hydrobromide]
pKi (D(2) dopamine receptor [2]): 6.36 | pKi (D(1A) dopamine receptor): 6.37

COC(=O)CC1c2cccc3c2[C@@H](CNC3)c2ccc(O)c(O)c21 (mixture of isomers) [(+/-)-7-methoxycarbonylmethyldinapsoline]
pKi (D(2) dopamine receptor [2]): 6.00 | pKi (D(1A) dopamine receptor): 5.62

CC1c2cccc3c2[C@@H](CNC3)c2ccc(O)c(O)c21 (mixture of isomers) [(+/-)-7-methyldinapsoline hydrobromide]
pKi (D(2) dopamine receptor [2]): 6.80 | pKi (D(1A) dopamine receptor): 6.86

CC1c2cccc3c2[C@@H](CN1C)c1ccc(O)c(O)c1C3 (mixture of isomers) [NSC_0]
pKi (D(2) dopamine receptor [1]): < 5.00 | pKi (D(1A) dopamine receptor): 5.02

Oc1ccc2c(c1O)Cc1cccc3c1[C@H]2CNC3C(F)(F)C(F)(F)C(F)(F)C(F)(F)F (mixture of isomers) [NSC_0]
pKi (D(2) dopamine receptor [2]): 7.11 | pKi (D(1A) dopamine receptor): 6.47

CCCN1Cc2cccc3c2[C@@H](C1)c1ccc(O)c(O)c1C3 (racemic) [(+/-)-2-propyldinapsoline hydrobromide]
pKi (D(2) dopamine receptor [1]): 7.82 | pKi (D(1A) dopamine receptor): 5.70

Oc1cc(Cl)c2c(c1O)Cc1cccc3c1[C@H]2CNC3 (racemic) [CAS_0]
pKi (D(2) dopamine receptor [2]): 7.80 | pKi (D(1A) dopamine receptor): 5.82

CC1(C)c2cccc3c2[C@@H](CNC3)c2ccc(O)c(O)c21 (racemic) [NSC_0]
pKi (D(2) dopamine receptor [2]): 6.41 | pKi (D(1A) dopamine receptor): 6.06

CN1Cc2cccc3c2[C@@H](C1)c1ccc(O)c(O)c1C3 (racemic) [NSC_0]
pKi (D(2) dopamine receptor [2]): 7.15 | pKi (D(1A) dopamine receptor): 6.42

O=[N+]([O-])c1cc(O)c(O)c2c1[C@@H]1CNCc3cccc(c31)C2 (racemic) [NSC_0]
pKi (D(2) dopamine receptor [2]): 5.96 | pKi (D(1A) dopamine receptor): < 5.00

Oc1ccc2c(c1O)Sc1cccc3c1C2CNC3 (centres undefined) [1,2,3,11b-Tetrahydro[1]benzothiopyrano[4,3,2-de]isoquinolin-8,9-diol]
pKi (D(2) dopamine receptor [2]): 7.46 | pKi (D(1A) dopamine receptor): 6.27

Oc1ccc2c(c1O)Cc1ccc(O)c3c1[C@H]2CNC3 [4-hydroxydinapsoline hydrobromide]
pKi (D(2) dopamine receptor [2]): 7.82 | pKi (D(1A) dopamine receptor): 7.14

CCc1ccc2c3c1Cc1c(ccc(O)c1O)[C@@H]3CNC2 [6-ethyldinapsoline hydrobromide]
pKi (D(2) dopamine receptor [1]): 7.57 | pKi (D(1A) dopamine receptor): 7.85

Oc1ccc2c(c1O)Cc1c(F)ccc3c1C2CNC3 (centres undefined) [NSC_0]
pKi (D(2) dopamine receptor [2]): 6.77 | pKi (D(1A) dopamine receptor): 5.52

Oc1ccc2c(c1O)Cc1c(F)ccc3c1[C@H]2CNC3 [NSC_0]
pKi (D(2) dopamine receptor [2]): 8.15

Oc1ccc2c(c1O)Cc1ccc(F)c3c1[C@H]2CNC3 [NSC_0]
pKi (D(2) dopamine receptor [2]): 7.55 | pKi (D(1A) dopamine receptor): 7.16
